In brackets after ≈: the same amount, converted by molar mass. Like-named read-outs stand apart in the source and are kept apart here.
Assays:
HSV-2 = HSV-2 CPE assay in Vero cells; type: cell-based; conditions: Human alphaherpesvirus 2, Vero; Table 4
[1] = Cytotoxicity on growing THP-1 cells (MTS assay); type: cell-based, human; conditions: human, thp-1 cells; Table 2; drug dose required to inhibit logphase growing cells by 50%; read-out: TC50 Growing THP-1
Protocol: Cytotoxicity Analysis. The cytotoxicity of the compounds were assayed using the CellTiter 96™ Aqueous Non-Radioactive Cell Proliferation (MTS) Assay kit obtained from Promega (Madison, Wis.) following the instructions provided by the supplier. The viable cell number was determined by trypan blue staining and cells (THP-1) were resuspended in PRMI supplemented with 10% FBS (GIBCO). Eighty microliters of cell suspension (1.7×10^4cells/well) was dispensed onto a 96-well microtiter plates. At this time 20 μL of drug (or control) was added to appropriate wells. Each concentration was assayed in quadruplicate. The plates were incubated at 37° C. in a humidified 5% CO2 atmosphere for 4 days and MTS assay […] for each concentration and the data obtained was used to calculate TC50 (the concentration of the compound necessary to inhibit the cell growth by 50%) for each compound.

[2] = Cytotoxicity on static MRC-5 cells; type: cell-based; conditions: human, Table 4, 50% cell death (static cells), read-out: TC50 Static MRC-5
Protocol: (§1) Cell Culture. Vero (African Green Monkey kidney cells) and MRC-5 (diploid Human Embryonic Lung fibroblasts) cells were obtained from the American Type Culture Collection (ATCC) and were grown in minimal essential medium (MEM) with Earl's salts and glutamine (GIBCO BRL, Life Technologies, Inc.) with 10% heat inactivated fetal bovine serum (GIBCO BRL) and penicillin (100 μg/mL)/streptomycin (100 μg/mL).
(§2) Cytotoxicity Analysis. The cytotoxicity of the compound was assayed using few the CellTiter 96™ Aqueous Non-Radioactive Cell Proliferation (MTS) Assay (Promega). Briefly, viable cell number was determined by trypan blue staining and cells (MRC-5 and Vero) were resuspended in minimal essential medium (MEM) supplemented with 10% FBS (GIBCO). Eighty microliters of cell suspension (1.7×10^4 cells/well) was dispensed onto a 96-well microtiter plates. At this time 20 μL of drug (or control) was added to appropriate wells. Each concentration was assayed in quadruplicate. The plates were incubated at 37° C. in a humidified 5% CO2 atmosphere for 4 days and MTS assay was performed according to the manufacturer's instructions. The average absorbence of the sample was graphed for each concentration and the data obtained was used to calculate TC50 (the concentration necessary to give one-half maximum growth) for each compound.

[3] = Cytotoxicity on growing MRC-5 cells (MTS); type: cell-based, human; conditions: human, mrc-5 cells
Protocol: as §1, §2

[4] = Cytotoxicity on growing Vero cells (MTS); type: cell-based; conditions: african green monkey, Table 4, 50% inhibition of logphase growing cells, read-out: TC50 Growing Vero
Protocol: as §1, §2

HCMV (Town strain) = assay: HCMV plaque reduction (CPE) assay in MRC-5 cells; type: cell-based, human cytomegalovirus
Protocol: The adenine analog phosphazole (compound T70241) was assayed for antiviral activity using a HCMV plaque reduction assay, in accordance with known methods such as that described in U.S. Pat. No. 5,446,045.
as §1
CMV Cytopathic Effect (CPE) Assay. Assays were performed essentially as described by Lewis et al. (111), which report is incorporated herein by reference. MRC-5 cells (100,000 cells/well) were seeded in 24-well plates overnight. Medium was then removed and wells were rinsed once with 250 μL of 2% FCS-MEM before adding 40-50 pfu of HCMV (Town strain) to each well. After 2 hours of virus adsorption, the medium was removed and the cells were rinsed once with 2% FCS-MEM. Varying concentrations of the phosphazole compound in the culture medium (1 mL) was then added to appropriate wells and plates were incubated for 5-6 days at 37° C. in a humidified 5% CO2 atmosphere. Each concentration was tested in duplicate wells.
The extent of the plaque reduction was quantitated by removing the media and adding 200 μL of 0.1% crystal violet in 20% methanol to all wells. The crystal violet was then removed after 10 min staining at room temperature by rinsing in the sink with tap water and the plates dried overnight. The plaques were then counted using a Nikon inverted microscope.

[5] = Cytotoxicity on static Vero cells; type: cell-based; conditions: african green monkey, Table 4, 50% cell death (static cells), read-out: TC50 Static Vero
Protocol: as §1, §2

Structure (SMILES) | IC50 (HSV-2) | CC50 at 96 h [1] | CC50 at 96 h [2] | CC50 at 96 h ([3]; FIG. 9A, four day period, read-out: TC50, growing MRC-5 cells) | CC50 at 96 h [4] | inhibition of HCMV virus production (HCMV (Town strain); 0.01-10 μg/mL) | IC50 (HCMV (Town strain); Human betaherpesvirus 5, MRC5, read-out: 50% inhibitory concentration (IC50), HCMV induced plaques) | IC50 (HCMV (Town strain); Human betaherpesvirus 5, MRC5, Table 4, read-out: IC50 HCMV) | CC50 at 96 h [5] | CC50 at 96 h ([3]; Table 4, 50% inhibition of logphase growing cells, read-out: TC50 Growing MRC-5) | IC50 (HCMV (Town strain); Human betaherpesvirus 5, MRC5, read-out: IC50 HCMV)
Nc1ncnc2pc[nH]c12 (stereo not shown) [T70241, 7-amino-1H-1,3-azaphospholo[4,5-d]pyrimidine] | > 50 µg/mL | > 1000 µg/mL | > 50 µg/mL | > 50 µg/mL | > 50 µg/mL | nearly logrithmic increase in inhibition of virus production | ~8.25 µg/mL (≈ 54.2 µM) | 8.08 µg/mL (≈ 53.1 µM) | > 50 µg/mL |  | 
CCCCCn1cpc2ncnc(N)c21 (stereo not shown) [T70254, 7-Amino-1-(n-pentyl)-1,3-azaphospholo[4,5-d]pyrimidine] | > 50 µg/mL | 14.7 µg/mL (≈ 66.2 µM) | 9.25 µg/mL (≈ 41.6 µM) |  | 8.18 µg/mL (≈ 36.8 µM) |  |  |  | 18.2 µg/mL (≈ 81.8 µM) | 17.9 µg/mL (≈ 80.8 µM) | > 50 µg/mL
